Assay results taken from patent US11147272B2, “Pyridone compounds and agricultural and horticultural fungicides comprising the same as active ingredients” (MITSUI CHEMICALS AGRO, INC., priority 2017, dated 2021).

What was measured:
[1] = system: Blumeria graminis f. sp. hordei; experiment: Test Example D: Powdery mildew on barley; details: Powdery mildew on barley; control value class
Botrytis cinerea = experiment: Test Example B: Gray mold on tomato; details: Gray mold on tomato; control value class
Puccinia recondita = experiment: Test Example E: Brown rust on wheat; format: in vivo; details: Brown rust on wheat; control value class
Plasmopara viticola = experiment: Test Example G: Downy mildew on vine; details: Downy mildew on vine; 250 ppm spray, 7 to 10 days after inoculation
Alternaia brassicicola = experiment: Test Example C: Alternaria sooty spot on cabbage; format: in vivo; details: Alternaria sooty spot on cabbage; control value class
Description: Seeds of a test plant (cabbage variety: Shikidori) were planted and cultivated until the cotyledons extended.
<Control Value> Control value=100{1−(n/3)}

Magnaporthe grisea = experiment: whole plant or invertebrate; format: in vivo; details: Blast on rice; control value class
Phytophthora infestans = experiment: whole plant or invertebrate; format: in vivo; details: Late blight on tomato; control value class
[2] = system: Colletotrichum orbiculare; experiment: Test Example H: Anthracnose on cucumber; details: Anthracnose on cucumber; 250 ppm spray, 6 to 10 days after inoculation
Description: Seeds of a test plant (cucumber variety: Sagami Hanjiro) were planted and cultivated until the first leaf appeared. In the test, the inventive compounds were dissolved into dimethyl sulfoxide-methanol mixture solution (volume ratio: 9/1), and the resultant solutions were diluted with well water to a concentration of 250 ppm to obtain the drug solutions. The drug solutions were sprayed to the test plant (2.5 ml/pot). After the drug solutions dried, a conidial suspension (2-4×10^5 conidia/ml) of Colletotrichum orbiculare was inoculated to the plant by spraying. After the inoculation, the plant was kept in a mist chamber at room temperature of 20 to 23° C. for about 24 hours to promote the onset of disease. The degrees of disease development were investigated 6 to 10 days after the inoculation, and the effectiveness of the drug solutions was evaluated.
In Test Examples described above, the degrees of disease development were evaluated in increments of 0.05 from 0 (as no incidence of disease) to 3 (as the degree of disease development in an untreated plant group). Further, control values were calculated using the following equation based on the degree of disease development.
n=Degree of disease development in each treated group
In the table, H: more than 50% control value, L: 50% or less control value, and nt: not tested.

Structure (SMILES)	Test D control value [1]	Test B control value (Botrytis cinerea)	Test E control value (Puccinia recondita)	Test G control value (Plasmopara viticola)	Test C control value (Alternaia brassicicola)	Test A control value (Magnaporthe grisea)	Test F control value (Phytophthora infestans)	Test H control value [2]
CCOc1ccc(-c2c(CC)cc(Cl)c(=O)n2C)c(Cl)c1 [compound 337]	L (50% or less control value)	H (more than 50% control value)	H (more than 50% control value)	L (50% or less control value)	L (50% or less control value)	L (50% or less control value)	L (50% or less control value)	H (more than 50% control value)
CCC1=C(c2ccc(F)cc2Br)N(CC)C(=O)CC1 [compound 338]	L (50% or less control value)	L (50% or less control value)	L (50% or less control value)	L (50% or less control value)	H (more than 50% control value)	L (50% or less control value)	L (50% or less control value)	L (50% or less control value)
CCc1ccc(=O)n(CC)c1-c1ccc(F)cc1Br [compound 340]	H (more than 50% control value)	H (more than 50% control value)	H (more than 50% control value)	L (50% or less control value)	H (more than 50% control value)	L (50% or less control value)	L (50% or less control value)	L (50% or less control value)
CCCC1=C(c2ccc(F)cc2Br)N(C)C(=O)CC1 [compound 341]	L (50% or less control value)	L (50% or less control value)	L (50% or less control value)	L (50% or less control value)	L (50% or less control value)	L (50% or less control value)	L (50% or less control value)	H (more than 50% control value)
CCc1cc(Cl)c(=O)n(CC)c1-c1ccc(F)cc1Br [compound 342]	H (more than 50% control value)	H (more than 50% control value)	H (more than 50% control value)	L (50% or less control value)	H (more than 50% control value)	H (more than 50% control value)	L (50% or less control value)	H (more than 50% control value)
CCc1cc(Br)c(=O)n(CC)c1-c1ccc(F)cc1Br [compound 343]	H (more than 50% control value)	H (more than 50% control value)	H (more than 50% control value)	H (more than 50% control value)	H (more than 50% control value)	H (more than 50% control value)	L (50% or less control value)	H (more than 50% control value)
